Legend:
Assay type in all cases: cell-based
[1] = system: Serratia marcescens; test: MIC against Gram-negative bacteria: Serratia marcescens; settings: S. marcescens, 10 h cultivation at 37° C.; for MIC (μg/mL) S. marcescens: 5×10^5 CFU/mL
How it was run: (§1)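 Inocula prepared by growing LB cultures at 37° C to 0.5 McFarland, centrifuging at 4000×g, and resuspending in fresh medium. Final density 5×10^5 CFU/mL per well with two-fold dilutions of purified EGF domain protein; shaking incubation at 37° C.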

[2] = system: Klebsiella pneumonia; test: MIC against Gram-negative bacteria: Klebsiella pneumonia; settings: K. pneumonia, 10 h cultivation at 37° C.; for MIC (μg/mL) K. pneumonia: 5×10^5 CFU/mL
How it was run: as §1

[3] = system: E. coli DH5α; test: Antibacterial activity: MIC and growth curve against E. coli DH5α in 96-well plate; settings: minimal inhibitory concentration against E. coli DH5α; 96-well plate, 5×10^5 CFU/mL, 37° C., judged after 8 h
How it was run: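 Log-phase DH5α (OD600 about 0.5, 37° C, 185 rpm in LB) was pelleted, resuspended in fresh LB and seeded at 5×10^5 CFU/mL with recombinant protein at 50, 25 and 12.5 μg/mL (two-fold series), in triplicate. Plates were shaken at 175 rpm, 37° C, and OD600 was read every 30 min. MIC was the lowest concentration with no growth.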

[4] = system: Pseudomonas aeruginosa; test: MIC against Gram-negative bacteria: Pseudomonas aeruginosa; settings: P. aeruginosa, 10 h cultivation at 37° C.; for MIC (μg/mL) P. aeruginosa: 5×10^5 CFU/mL
How it was run: as §1

[5] = system: Proteus vulgaris; test: MIC against Gram-negative bacteria: Proteus vulgaris; settings: P. vulgaris, 10 h cultivation at 37° C.; for MIC (μg/mL) P. vulgaris: 5×10^5 CFU/mL
How it was run: as §1

[6] = system: Proteus mirabilis; test: MIC against Gram-negative bacteria: Proteus mirabilis; settings: P. mirabilis, 10 h cultivation at 37° C.; for MIC (μg/mL) P. mirabilis: 5×10^5 CFU/mL
How it was run: as §1

[7] = system: Moraxella catarrhalis; test: MIC against Gram-negative bacteria: Moraxella catarrhalis; settings: M. catarrhalis, 10 h cultivation at 37° C.; for MIC (μg/mL) M. catarrhalis: 5×10^5 CFU/mL
How it was run: as §1

[8] = system: Citrobacter diversus; test: MIC against Gram-negative bacteria: Citrobacter diversus; settings: C. diversus, 10 h cultivation at 37° C.; for MIC (μg/mL) C. diversus: 5×10^5 CFU/mL
How it was run: as §1

[9] = system: E. coli BL21; test: MIC against Gram-negative bacteria: E. coli BL21; settings: E. coli BL21, 10 h cultivation at 37° C.; for MIC (μg/mL) E. coli BL21: 5×10^5 CFU/mL
How it was run: as §1

[10] = system: Enterobacter cloacae; test: MIC against Gram-negative bacteria: Enterobacter cloacae; settings: E. cloacae, 10 h cultivation at 37° C.; for MIC (μg/mL) E. cloacae: 5×10^5 CFU/mL
How it was run: as §1

[11] = system: Aeromonas hydrophila; test: MIC against Gram-negative bacteria: Aeromonas hydrophila; settings: A. hydrophila, 10 h cultivation at 37° C.; for MIC (μg/mL) A. hydrophila: 5×10^5 CFU/mL
How it was run: as §1

| Substance | MIC [3] | MIC [1] | MIC [2] | MIC [4] | MIC [5] | MIC [6] | MIC [7] | MIC [8] | MIC [9] | MIC [10] | MIC [11] | also measured |
| --- | --- | --- | --- | --- | --- | --- | --- | --- | --- | --- | --- | --- |
| PRT891 (DVDECASTPCKNGAKCLDGPNTYTCVCTEGYTGTHCE; listed as Homo sapiens) | 12.5 µg/mL |  |  |  |  |  |  |  |  |  |  | MIC (μg/mL) S. marcescens [1]: 50 µg/mL; MIC (μg/mL) K. pneumonia [2]: 25 µg/mL; MIC (μg/mL) P. aeruginosa [4]: 12.5 µg/mL; MIC (μg/mL) P. vulgaris [5]: 25 µg/mL; MIC (μg/mL) P. mirabilis [6]: 12.5 µg/mL; MIC (μg/mL) M. catarrhalis [7]: 25 µg/mL; MIC (μg/mL) C. diversus [8]: 12.5 µg/mL; MIC (μg/mL) E. coli BL21 [9]: 25 µg/mL; MIC (μg/mL) E. cloacae [10]: 12.5 µg/mL; MIC (μg/mL) A. hydrophila [11]: 25 µg/mL |
| PRT893 (NINECSSQPCRHGGTCQDRDNAYLCFCLKGTTGPNCE; listed as Homo sapiens) | 12.5 µg/mL |  |  |  |  |  |  |  |  |  |  | MIC (μg/mL) S. marcescens [1]: 12.5 µg/mL; MIC (μg/mL) K. pneumonia [2]: 25 µg/mL; MIC (μg/mL) P. aeruginosa [4]: 50 µg/mL; MIC (μg/mL) P. vulgaris [5]: 50 µg/mL; MIC (μg/mL) P. mirabilis [6]: 12.5 µg/mL; MIC (μg/mL) M. catarrhalis [7]: 25 µg/mL; MIC (μg/mL) C. diversus [8]: 50 µg/mL; MIC (μg/mL) E. coli BL21 [9]: 25 µg/mL; MIC (μg/mL) E. cloacae [10]: 12.5 µg/mL; MIC (μg/mL) A. hydrophila [11]: 25 µg/mL |
| PRT894 (NLDDCASSPCDSGTCLDKIDGYECACEPGYTGSMCN; listed as Homo sapiens) | 12.5 µg/mL | 12.5 µg/mL | 50 µg/mL | 12.5 µg/mL | 50 µg/mL | 12.5 µg/mL | 50 µg/mL | 12.5 µg/mL | 50 µg/mL | 12.5 µg/mL | 50 µg/mL |  |
| PRT895 (NIDECAGNPCHNGGTCEDGINGFTCRCPEGYHDPTCL; listed as Homo sapiens) | 50 µg/mL | 25 µg/mL | 50 µg/mL | 12.5 µg/mL | 25 µg/mL | 12.5 µg/mL | 50 µg/mL | 12.5 µg/mL | 25 µg/mL | 12.5 µg/mL | 50 µg/mL |  |
| PRT896 (EVNECNSNPCVHGACRDSLNGYKCDCDPGWSGTNCD; listed as Homo sapiens) | 25 µg/mL | 12.5 µg/mL | 12.5 µg/mL | 25 µg/mL | 50 µg/mL | 25 µg/mL | 12.5 µg/mL | 50 µg/mL | 50 µg/mL | 50 µg/mL | 12.5 µg/mL |  |
| PRT897 (DPNPCLSTPCKNAGTCHVVDRRGVADYACSCALGFSGPLCL; listed as Homo sapiens) | 50 µg/mL | 25 µg/mL | 50 µg/mL | 12.5 µg/mL | 12.5 µg/mL | 25 µg/mL | 50 µg/mL | 12.5 µg/mL | 25 µg/mL | 12.5 µg/mL | 50 µg/mL |  |
| PRT898 (NNNECESNPCVNGGTCKDMTSGYVCTCREGFSGPNCQ; listed as Homo sapiens) | 25 µg/mL | 12.5 µg/mL | 12.5 µg/mL | 25 µg/mL | 25 µg/mL | 12.5 µg/mL | 12.5 µg/mL | 12.5 µg/mL | 50 µg/mL | 50 µg/mL | 12.5 µg/mL |  |
| PRT899 (NINECASNPCLNQGTCIDDVAGYKCNCLLPYTGATCE; listed as Homo sapiens) | 12.5 µg/mL | 12.5 µg/mL | 12.5 µg/mL | 12.5 µg/mL | 12.5 µg/mL | 50 µg/mL | 12.5 µg/mL | 50 µg/mL | 12.5 µg/mL | 50 µg/mL | 12.5 µg/mL |  |
